Measurements from patent US6248739A, “Quinolinecarboxamides as antiviral agents” (Pharmacia & Upjohn Company, priority 1999, dated 2001).

Assays:
HCMV polymerase = molecular target: T1, HCMV polymerase (Human cytomegalovirus, UniProt P08546); experiment: biochemical; conditions: HCMV polymerase; SPA; modified assay: compounds in 100% DMSO, 4.5 mM DTT
T1 construct: made in house; host or cells: recombinant baculovirus-infected SF-9 insect cells
Method in brief: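 Scintillation proximity assay with baculovirus/SF-9-expressed HCMV polymerase, 90 nM ³H-dTTP and 6 nM biotinylated poly(dA)-oligo(dT) in HEPES pH 7.5/KCl/MgCl2/BSA, ±2 mM CHAPS, 25 or 37 °C, 30 min for HCMV. Modified version: compounds diluted in 100% DMSO, 4.5 mM DTT added. IC50 from linear regression.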

VZV polymerase = VZV polymerase (Varicella-zoster virus, UniProt P09252); experiment: VZV polymerase assay (Table 1); assay type: biochemical
Sequence of VZV polymerase (P09252 whole entry): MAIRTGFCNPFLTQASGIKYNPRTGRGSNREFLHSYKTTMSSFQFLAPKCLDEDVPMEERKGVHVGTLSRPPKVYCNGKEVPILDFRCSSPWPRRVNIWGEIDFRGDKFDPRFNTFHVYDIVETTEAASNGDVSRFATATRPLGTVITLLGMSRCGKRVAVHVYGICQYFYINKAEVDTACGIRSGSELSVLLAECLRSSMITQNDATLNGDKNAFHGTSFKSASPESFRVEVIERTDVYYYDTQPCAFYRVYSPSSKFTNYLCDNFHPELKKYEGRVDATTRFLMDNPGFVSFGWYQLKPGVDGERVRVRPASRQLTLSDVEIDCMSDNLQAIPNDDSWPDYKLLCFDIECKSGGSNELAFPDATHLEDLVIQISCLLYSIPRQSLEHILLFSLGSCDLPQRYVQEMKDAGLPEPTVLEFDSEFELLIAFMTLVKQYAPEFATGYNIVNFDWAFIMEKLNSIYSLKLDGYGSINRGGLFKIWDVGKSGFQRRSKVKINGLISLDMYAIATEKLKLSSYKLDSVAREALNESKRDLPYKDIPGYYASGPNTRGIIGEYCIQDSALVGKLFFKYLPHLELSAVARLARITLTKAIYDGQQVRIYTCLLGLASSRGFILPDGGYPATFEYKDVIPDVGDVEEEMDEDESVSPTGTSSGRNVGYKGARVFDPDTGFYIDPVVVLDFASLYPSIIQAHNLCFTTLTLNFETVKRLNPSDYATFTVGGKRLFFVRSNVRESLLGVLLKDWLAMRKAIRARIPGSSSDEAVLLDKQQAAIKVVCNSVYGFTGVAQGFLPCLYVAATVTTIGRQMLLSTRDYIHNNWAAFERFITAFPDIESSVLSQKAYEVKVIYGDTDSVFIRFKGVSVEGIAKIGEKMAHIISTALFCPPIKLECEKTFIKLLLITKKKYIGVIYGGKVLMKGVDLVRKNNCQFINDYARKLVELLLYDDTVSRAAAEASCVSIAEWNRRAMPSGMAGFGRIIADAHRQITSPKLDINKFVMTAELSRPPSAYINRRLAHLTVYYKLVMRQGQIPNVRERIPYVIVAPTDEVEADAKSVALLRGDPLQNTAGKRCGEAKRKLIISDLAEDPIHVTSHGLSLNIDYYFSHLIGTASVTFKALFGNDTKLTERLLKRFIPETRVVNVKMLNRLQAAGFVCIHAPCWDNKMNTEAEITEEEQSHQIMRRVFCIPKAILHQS

HSV polymerase = HSV polymerase (Human herpesvirus 1, UniProt P04293); experiment: HSV polymerase assay (Table 1); assay type: biochemical
Sequence of HSV polymerase (P04293 whole entry): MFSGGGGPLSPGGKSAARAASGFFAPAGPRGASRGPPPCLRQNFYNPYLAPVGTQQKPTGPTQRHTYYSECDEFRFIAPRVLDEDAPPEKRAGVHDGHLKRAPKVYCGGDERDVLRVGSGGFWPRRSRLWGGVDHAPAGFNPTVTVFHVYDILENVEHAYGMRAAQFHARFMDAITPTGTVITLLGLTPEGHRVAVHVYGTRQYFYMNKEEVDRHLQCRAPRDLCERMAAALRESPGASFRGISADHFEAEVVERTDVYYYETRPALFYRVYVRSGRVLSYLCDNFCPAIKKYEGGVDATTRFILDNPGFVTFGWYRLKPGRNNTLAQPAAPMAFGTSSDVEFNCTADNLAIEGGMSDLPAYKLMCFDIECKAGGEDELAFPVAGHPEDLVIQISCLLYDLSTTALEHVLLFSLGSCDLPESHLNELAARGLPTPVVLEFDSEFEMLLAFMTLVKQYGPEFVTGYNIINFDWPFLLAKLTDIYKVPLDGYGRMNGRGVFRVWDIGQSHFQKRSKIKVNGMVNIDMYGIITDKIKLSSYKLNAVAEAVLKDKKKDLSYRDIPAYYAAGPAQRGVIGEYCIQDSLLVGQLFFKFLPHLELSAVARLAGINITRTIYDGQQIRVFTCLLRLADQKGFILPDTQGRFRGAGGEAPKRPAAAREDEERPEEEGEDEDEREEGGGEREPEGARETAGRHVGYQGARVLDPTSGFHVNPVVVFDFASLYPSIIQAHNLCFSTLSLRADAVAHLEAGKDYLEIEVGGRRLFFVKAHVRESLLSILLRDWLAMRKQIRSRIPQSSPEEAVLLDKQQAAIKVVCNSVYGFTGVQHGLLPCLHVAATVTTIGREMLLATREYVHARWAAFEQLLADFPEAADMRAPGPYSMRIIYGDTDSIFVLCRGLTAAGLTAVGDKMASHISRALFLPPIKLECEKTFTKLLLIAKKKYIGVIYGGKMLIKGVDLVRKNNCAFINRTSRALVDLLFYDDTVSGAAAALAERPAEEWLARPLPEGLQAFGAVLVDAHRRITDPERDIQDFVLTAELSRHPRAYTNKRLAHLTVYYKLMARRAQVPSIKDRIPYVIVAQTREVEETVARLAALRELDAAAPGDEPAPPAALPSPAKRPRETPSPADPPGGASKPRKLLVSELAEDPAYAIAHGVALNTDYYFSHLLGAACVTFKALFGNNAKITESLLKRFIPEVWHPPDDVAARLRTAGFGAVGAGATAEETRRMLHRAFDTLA

T1 sequence (P08546 whole entry): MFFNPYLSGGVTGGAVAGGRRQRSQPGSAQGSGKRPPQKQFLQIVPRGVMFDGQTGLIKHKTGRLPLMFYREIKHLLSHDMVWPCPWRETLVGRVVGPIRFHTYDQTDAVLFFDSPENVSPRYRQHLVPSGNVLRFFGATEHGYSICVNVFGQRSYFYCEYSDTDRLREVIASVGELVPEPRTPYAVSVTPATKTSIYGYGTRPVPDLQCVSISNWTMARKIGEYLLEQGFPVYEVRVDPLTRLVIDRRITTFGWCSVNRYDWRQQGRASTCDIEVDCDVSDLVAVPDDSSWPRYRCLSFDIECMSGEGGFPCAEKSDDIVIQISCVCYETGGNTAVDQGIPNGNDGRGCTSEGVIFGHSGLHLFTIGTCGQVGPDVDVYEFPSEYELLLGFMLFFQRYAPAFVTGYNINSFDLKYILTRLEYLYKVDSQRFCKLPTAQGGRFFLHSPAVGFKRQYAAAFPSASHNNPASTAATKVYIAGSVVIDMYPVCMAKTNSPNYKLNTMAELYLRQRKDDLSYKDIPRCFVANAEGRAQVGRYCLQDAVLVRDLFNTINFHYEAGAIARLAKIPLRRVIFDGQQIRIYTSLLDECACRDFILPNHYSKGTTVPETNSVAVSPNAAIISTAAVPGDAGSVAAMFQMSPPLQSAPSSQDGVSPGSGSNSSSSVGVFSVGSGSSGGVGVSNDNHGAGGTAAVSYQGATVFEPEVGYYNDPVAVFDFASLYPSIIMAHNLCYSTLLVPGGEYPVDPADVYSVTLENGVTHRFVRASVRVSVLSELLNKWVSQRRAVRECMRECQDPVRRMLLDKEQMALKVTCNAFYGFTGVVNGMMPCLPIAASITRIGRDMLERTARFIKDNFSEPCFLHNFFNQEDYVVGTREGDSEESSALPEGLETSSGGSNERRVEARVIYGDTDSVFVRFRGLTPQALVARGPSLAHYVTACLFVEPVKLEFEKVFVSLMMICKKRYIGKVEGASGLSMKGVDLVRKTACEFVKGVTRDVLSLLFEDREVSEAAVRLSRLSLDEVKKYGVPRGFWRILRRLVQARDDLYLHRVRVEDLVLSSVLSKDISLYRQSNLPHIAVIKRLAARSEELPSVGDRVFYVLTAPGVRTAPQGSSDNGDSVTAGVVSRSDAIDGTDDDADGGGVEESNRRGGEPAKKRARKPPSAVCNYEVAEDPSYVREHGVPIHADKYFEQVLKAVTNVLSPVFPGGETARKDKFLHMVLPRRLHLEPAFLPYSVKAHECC

O=C(NCc1ccc(Cl)cc1)c1cn(CSc2ccccc2)c2ccc(CN3CCOCC3)cc2c1=O [Example 76, N-(4-Chlorobenzyl)-6-(morpholinylmethyl)-4-oxo-1-[(phenylsulfanyl)methyl]-1,4-dihydro-3-quinolinecarboxamide]
IC50 (HCMV polymerase): 180 nM | IC50 (VZV polymerase): < 310 nM | IC50 (HSV polymerase): < 310 nM

COc1cc(C(O)CN(C)Cc2ccc3c(c2)c(=O)c(C(=O)NCc2ccc(Cl)cc2)cn3C)ccc1O (stereo not drawn) [Example 77, N-(4-Chlorobenzyl)-6-([(2-hydroxy-2-[4-hydroxy-3-methoxyphenyl]ethyl)[methyl]amino]methyl)-1-methyl-4-oxo-1,4-dihydro-3-quinolinecarboxamide]
IC50 (HCMV polymerase): 1300 nM | IC50 (VZV polymerase): 2100 nM | IC50 (HSV polymerase): 4100 nM
